Where two headings read alike, the source gives them in different places.
Key:
KRas G12C mutant = target: T1, KRas G12C mutant (Homo sapiens, UniProt P01116, G12C); assay: Ras GTP binding domain inhibition assay (labeled-GTP competition, cell-free)
T1 construct: made in house
Outline: (§1)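 First, the His-tagged protein was captured overnight at 4° C on nickel wells. Second, compound was applied at 20 μM or as a dilution series for IC50 over 3 h. Third, 100 nM Cy3- or Cy5-GTP was added for 45 min. Finally, wells were washed and bound label quantified.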

KRas G12D mutant = target: T2, KRas G12D mutant (Homo sapiens, UniProt P01116, G12D); assay: as above
T2 construct: made in house
Outline: as §1

KRas Q61H mutant = target: T3, KRas Q61H mutant (Homo sapiens, UniProt P01116, Q61H); assay: as above; details: at 20 μM
T3 construct: made in house
Outline: as §1

[1] = tested on: MIA-PaCa-2 pancreatic cancer cell line (KRAS G12C); assay: Cell proliferation assay (CellTiter 96 Aqueous One); assay type: cell-based; details: Homo sapiens; for IC50: MIA PaCa-2, MIA PaCa-2; for inhibition at 10 µM: MIA PaCa-2, read-out: % inh cell proliferation (10 μM) in MIA PaCa-2
Outline: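 Read-out is MTS-based viability (CellTiter 96 Aqueous One) after 2–4 days of compound exposure at 37 °C in 10% FBS with 0.3% DMSO.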

KRas wild type = KRas wild type (Homo sapiens, UniProt P01116); assay: Ras GTP binding domain inhibition assay (labeled-GTP competition, cell-free); parameters: made in house
Outline: as §1

Rac-1 = Rac-1 (Homo sapiens, UniProt P63000); assay: as above; parameters: made in house
Outline: as §1

Rho-A = Rho-A (Homo sapiens, UniProt P61586); assay: as above; parameters: made in house
Outline: as §1

[2] = with SOS, read-out: KRas G12C mutant + SOS: % inh.
[3] = without SOS, read-out: KRas G12C mutant: % inh.
[4] = with SOS, read-out: KRas G12D mutant + SOS: % inh.
[5] = without SOS, read-out: KRas G12D mutant: % inh.
[6] = with SOS, read-out: KRas Q61H mutant + SOS: % inh.
[7] = without SOS, read-out: KRas Q61H mutant: % inh.
[8] = with SOS, read-out: KRas wild type + SOS: % inh.
[9] = without SOS, read-out: KRas wild type: % inh.
[10] = with SOS, read-out: Rac-1 + SOS: % inh.
[11] = without SOS, read-out: Rac-1: % inh.
[12] = with SOS, read-out: Rho-A + SOS: % inh.
[13] = without SOS, read-out: Rho-A: % inh.

Row | Compound | inhibition at 20 µM (KRas G12C mutant; [2]) [%] | inhibition at 20 µM (KRas G12C mutant; [3]) [%] | inhibition at 20 µM (KRas G12D mutant; [4]) [%] | inhibition at 20 µM (KRas G12D mutant; [5]) [%] | inhibition at 20 µM (KRas Q61H mutant; [6]) [%] | inhibition at 20 µM (KRas Q61H mutant; [7]) [%] | IC50 [1] [µM] | inhibition at 10 µM [1] [%] | inhibition at 20 µM (KRas wild type; [8]) [%] | inhibition at 20 µM (KRas wild type; [9]) [%] | inhibition at 20 µM (Rac-1; [10]) [%] | inhibition at 20 µM (Rac-1; [11]) [%] | inhibition at 20 µM (Rho-A; [12]) [%] | inhibition at 20 µM (Rho-A; [13]) [%]
1 | COCCCNc1nc(-c2nccn2C)nc2sc(-c3ccn(C(C)C)n3)c(C)c12 [Compound 36, 6-(1-Isopropyl-1H-pyrazol-3-yl)-N-(3-methoxypropyl)-5-methyl-2-(1-methyl-1H-imidazol-2-yl)thieno[2,3-d]pyrimidin-4-amine] | 76 to 100 | 76 to 100 | 76 to 100 | 51 to 75 | 76 to 100 | 76 to 100 | < 1 | 76 to 100 | 76 to 100 | 76 to 100 | 76 to 100 | 76 to 100 | 76 to 100 | 26 to 50
2 | CO[C@H]1CN(c2nc(-c3nccn3C)nc3sc(-c4ccn(C(C)C)n4)c(C)c23)C[C@H]1OC [Compound 39, rac-4-((3S,4R)-3,4-Dimethoxypyrrolidin-1-yl)-6-(1-isopropyl-1H-pyrazol-3-yl)-5-methyl-2-(1-methyl-1H-imidazol-2-yl)thieno[2,3-d]pyrimidine] | 51 to 75 | 51 to 75 | 76 to 100 | 51 to 75 | 76 to 100 | 51 to 75 | 5 to 10 | 76 to 100 | 51 to 75 | 76 to 100 | 51 to 75 | 51 to 75 | 76 to 100 | 76 to 100
3 | CO[C@H]1C[C@@H](Nc2nc(-c3nccn3C)nc3sc(-c4ccn(C(C)C)n4)c(C)c23)C[C@H]1OC [Compound 42, N-((1r,3R,4S)-3,4-Dimethoxycyclopentyl)-6-(1-isopropyl-1H-pyrazol-3-yl)-5-methyl-2-(1-methyl-1H-imidazol-2-yl)thieno[2,3-d]pyrimidin-4-amine] | 76 to 100 | 76 to 100 | 51 to 75 | 76 to 100 | 76 to 100 | 76 to 100 | 5 to 10 | 51 to 75 | 76 to 100 | 51 to 75 | 51 to 75 | 51 to 75 | 76 to 100 | 51 to 75
4 | CO[C@H]1C[C@H](Nc2nc(-c3nccn3C)nc3sc(-c4ccn(C(C)C)n4)c(C)c23)C[C@H]1OC [Compound 43, N-((1s,3R,4S)-3,4-Dimethoxycyclopentyl)-6-(1-isopropyl-1H-pyrazol-3-yl)-5-methyl-2-(1-methyl-1H-imidazol-2-yl)thieno[2,3-d]pyrimidin-4-amine] | 76 to 100 | 1 to 25 | 76 to 100 | 76 to 100 | 76 to 100 | 1 to 25 | 5 to 10 | 51 to 75 | 76 to 100 | 26 to 50 | 51 to 75 | 26 to 50 | 76 to 100 | 76 to 100
5 | Cc1c(-c2ccn(C(C)C)n2)sc2nc(-c3nccn3C)nc(NCCc3nnn[nH]3)c12 [Compound 46, N-(2-(1H-Tetrazol-5-yl)ethyl)-6-(1-isopropyl-1H-pyrazol-3-yl)-5-methyl-2-(1-methyl-1H-imidazol-2-yl)thieno[2,3-d]pyrimidin-4-amine] | 51 to 75 | 51 to 75 | 76 to 100 | 26 to 50 | 76 to 100 | 76 to 100 | > 10 | 1 to 25 | 51 to 75 | 76 to 100 | 76 to 100 | 76 to 100 | 76 to 100 | 76 to 100
6 | CO[C@H]1C[C@@H](CNc2nc(-c3nccn3C)nc3sc(-c4ccn(C(C)C)n4)c(C)c23)C1 [Compound 47, 6-(1-Isopropyl-1H-pyrazol-3-yl)-N-(((1s,3s)-3-methoxycyclobutyl)methyl)-5-methyl-2-(1-methyl-1H-imidazol-2-yl)thieno[2,3-d]pyrimidin-4-amine] | 76 to 100 | 51 to 75 | 51 to 75 | 51 to 75 | 76 to 100 | 51 to 75 | < 1 | 76 to 100 | 76 to 100 | 76 to 100 | 51 to 75 | 51 to 75 | 76 to 100 | 76 to 100
7 | CO[C@H]1C[C@H](CNc2nc(-c3nccn3C)nc3sc(-c4ccn(C(C)C)n4)c(C)c23)C1 [Compound 48, 6-(1-Isopropyl-1H-pyrazol-3-yl)-N-(((1r,3r)-3-methoxycyclobutyl)methyl)-5-methyl-2-(1-methyl-1H-imidazol-2-yl)thieno[2,3-d]pyrimidin-4-amine] | 51 to 75 | 51 to 75 | 51 to 75 | 26 to 50 | 51 to 75 | 51 to 75 | < 1 | 76 to 100 | 51 to 75 | 76 to 100 | 26 to 50 | 26 to 50 | 76 to 100 | 51 to 75
8 | CO[C@H]1CCCN(c2nc(-c3nccn3C)nc3sc(-c4ccn(C(C)C)n4)c(C)c23)C1 [Compound 49, (S)-6-(1-Isopropyl-1H-pyrazol-3-yl)-4-(3-methoxypiperidin-1-yl)-5-methyl-2-(1-methyl-1H-imidazol-2-yl)thieno[2,3-d]pyrimidine] | 51 to 75 | 1 to 25 | 26 to 50 | 0 | 51 to 75 | 51 to 75 | 5 to 10 | 76 to 100 | 76 to 100 | 51 to 75 | – | 26 to 50 | – | 51 to 75
9 | CO[C@@H]1CCCN(c2nc(-c3nccn3C)nc3sc(-c4ccn(C(C)C)n4)c(C)c23)C1 [Compound 50, (R)-6-(1-Isopropyl-1H-pyrazol-3-yl)-4-(3-methoxypiperidin-1-yl)-5-methyl-2-(1-methyl-1H-imidazol-2-yl)thieno[2,3-d]pyrimidine] | 51 to 75 | 26 to 50 | 1 to 25 | 0 | 51 to 75 | 26 to 50 | – | 76 to 100 | 51 to 75 | 51 to 75 | – | 0 | – | 76 to 100
10 | Cc1c(-c2ccn(C(C)C)n2)sc2nc(-c3nccn3C)nc(NC[C@@H]3CCC(=O)N3)c12 [Compound 51] | 26 to 50 | 51 to 75 | 51 to 75 | 26 to 50 | 51 to 75 | 51 to 75 | > 10 | 0 | 51 to 75 | 51 to 75 | – | 51 to 75 | – | 76 to 100
